Source: ChEMBL document CHEMBL3822390, “Synthesis, characterization and anti-cancer activity of a peptide nucleolipid bioconjugate” (2016)

Assays:
Type in all cases: functional
[1] = system: HT-29; assay: Cytotoxicity against human HT-29 cells assessed as cell growth at 10 uM after 48 hrs by SRB assay; settings: HT-29, 48 h, read-out: Activity
[2] = system: KM12; assay: Cytotoxicity against human KM12 cells assessed as cell growth at 10 uM after 48 hrs by SRB assay; settings: KM12, 48 h, read-out: Activity
[3] = Cytotoxicity against human COLO205 cells assessed as cell growth at 10 uM after 48 hrs by SRB assay; settings: COLO 205, 48 h, read-out: Activity
[4] = Cytotoxicity against human Hs 578T cells assessed as cell growth at 10 uM after 48 hrs by SRB assay; settings: read-out: Activity
[5] = Cytotoxicity against human UACC257 cells assessed as cell growth at 10 uM after 48 hrs by SRB assay; settings: UACC-257, 48 h, read-out: Activity
[6] = system: SR; assay: Cytotoxicity against human SR cells assessed as cell growth at 10 uM after 48 hrs by SRB assay; settings: read-out: Activity
[7] = Cytotoxicity against human UO31 cells assessed as cell growth at 10 uM after 48 hrs by SRB assay; settings: UO-31, 48 h, read-out: Activity
[8] = Cytotoxicity against human UACC62 cells assessed as cell growth at 10 uM after 48 hrs by SRB assay; settings: UACC-62, 48 h, read-out: Activity
[9] = system: MDA-MB-435; assay: Cytotoxicity against human MDA-MB-435 cells assessed as cell growth at 10 uM after 48 hrs by SRB assay; settings: MDA-MB-435, 48 h, read-out: Activity
[10] = system: NCI-H522; assay: Cytotoxicity against human NCI-H522 cells assessed as cell mortality at 10 uM after 48 hrs by SRB assay; settings: NCI-H522, 48 h
[11] = Cytotoxicity against human TK10 cells assessed as cell growth at 10 uM after 48 hrs by SRB assay; settings: TK-10, 48 h, read-out: Activity
[12] = Cytotoxicity against human IGROV1 cells assessed as cell growth at 10 uM after 48 hrs by SRB assay; settings: IGROV-1, 48 h, read-out: Activity
[13] = Cytotoxicity against human Caki1 cells assessed as cell growth at 10 uM after 48 hrs by SRB assay; settings: CAKI-1, 48 h, read-out: Activity
[14] = Cytotoxicity against human HOP62 cells assessed as cell growth at 10 uM after 48 hrs by SRB assay; settings: HOP-62, 48 h, read-out: Activity
[15] = system: SK-MEL-2; assay: Cytotoxicity against human SK-MEL-2 cells assessed as cell growth at 10 uM after 48 hrs by SRB assay; settings: SK-MEL-2, 48 h, read-out: Activity
[16] = system: U-251; assay: Cytotoxicity against human U251 cells assessed as cell growth at 10 uM after 48 hrs by SRB assay; settings: U-251, 48 h, read-out: Activity
[17] = system: T47D; assay: Cytotoxicity against human T47D cells assessed as cell growth at 7.25 uM after 48 hrs by SRB assay; settings: read-out: Activity
[18] = system: Malme-3M; assay: Cytotoxicity against human MALME-3M cells assessed as cell growth at 7.25 uM after 48 hrs by SRB assay; settings: read-out: Activity
[19] = system: K562; assay: Cytotoxicity against human K562 cells assessed as cell growth at 7.25 uM after 48 hrs by SRB assay; settings: K562, 48 h, read-out: Activity
[20] = Cytotoxicity against human RPMI8226 cells assessed as cell growth at 7.25 uM after 48 hrs by SRB assay; settings: RPMI-8226, 48 h, read-out: Activity
[21] = system: A549; assay: Cytotoxicity against human A549 cells assessed as cell mortality at 7.25 uM after 48 hrs by SRB assay; settings: A549, 48 h
[22] = system: ACHN; assay: Cytotoxicity against human ACHN cells assessed as cell growth at 7.25 uM after 48 hrs by SRB assay; settings: read-out: Activity
[23] = Cytotoxicity against human HOP92 cells assessed as cell growth at 7.25 uM after 48 hrs by SRB assay; settings: HOP-92, 48 h, read-out: Activity
[24] = system: U-251; assay: Cytotoxicity against human U251 cells assessed as cell growth at 7.25 uM after 48 hrs by SRB assay; settings: U-251, 48 h, read-out: Activity
[25] = system: EKVX; assay: Cytotoxicity against human EKVX cells assessed as cell growth at 7.25 uM after 48 hrs by SRB assay; settings: read-out: Activity
[26] = Cytotoxicity against human COLO205 cells assessed as cell growth at 7.25 uM after 48 hrs by SRB assay; settings: COLO 205, 48 h, read-out: Activity
[27] = Cytotoxicity against human HCC2998 cells assessed as cell growth at 7.25 uM after 48 hrs by SRB assay; settings: HCC 2998, 48 h, read-out: Activity
[28] = system: HT-29; assay: Cytotoxicity against human HT-29 cells assessed as cell growth at 7.25 uM after 48 hrs by SRB assay; settings: HT-29, 48 h, read-out: Activity
[29] = Cytotoxicity against human MOLT4 cells assessed as cell growth at 7.25 uM after 48 hrs by SRB assay; settings: MOLT-4, 48 h, read-out: Activity
[30] = Cytotoxicity against human RXF393 cells assessed as cell growth at 7.25 uM after 48 hrs by SRB assay; settings: RXF 393, 48 h, read-out: Activity
[31] = Cytotoxicity against human RPMI8226 cells assessed as cell growth at 2.13 uM after 48 hrs by SRB assay; settings: RPMI-8226, 48 h, read-out: Activity
[32] = system: MCF7; assay: Cytotoxicity against human MCF7 cells assessed as cell growth at 2.13 uM after 48 hrs by SRB assay; settings: MCF7, 48 h, read-out: Activity
[33] = system: NCI-H522; assay: Cytotoxicity against human NCI-H522 cells assessed as cell growth at 2.13 uM after 48 hrs by SRB assay; settings: NCI-H522, 48 h, read-out: Activity
[34] = Cytotoxicity against human UO31 cells assessed as cell growth at 2.13 uM after 48 hrs by SRB assay; settings: UO-31, 48 h, read-out: Activity
[35] = system: SK-MEL-28; assay: Cytotoxicity against human SK-MEL-28 cells assessed as cell growth at 2.13 uM after 48 hrs by SRB assay; settings: SK-MEL-28, 48 h, read-out: Activity
[36] = Cytotoxicity against human SW620 cells assessed as cell growth at 2.13 uM after 48 hrs by SRB assay; settings: SW-620, 48 h, read-out: Activity
[37] = system: EKVX; assay: Cytotoxicity against human EKVX cells assessed as cell growth at 2.13 uM after 48 hrs by SRB assay; settings: read-out: Activity
[38] = Cytotoxicity against human HCT116 cells assessed as cell growth at 2.13 uM after 48 hrs by SRB assay; settings: HCT-116, 48 h, read-out: Activity
[39] = Cytotoxicity against human COLO205 cells assessed as cell growth at 2.13 uM after 48 hrs by SRB assay; settings: COLO 205, 48 h, read-out: Activity
[40] = Cytotoxicity against human HOP62 cells assessed as cell growth at 2.13 uM after 48 hrs by SRB assay; settings: HOP-62, 48 h, read-out: Activity
[41] = Cytotoxicity against human HCT15 cells assessed as cell growth at 2.13 uM after 48 hrs by SRB assay; settings: HCT-15, 48 h, read-out: Activity

## CC(C)C[C@H](NC(=O)[C@H](CCCCN)NC(=O)[C@H](C)NC(=O)[C@H](CC(C)C)NC(=O)[C@H](CCCCN)NC(=O)[C@H](CCCCN)NC(=O)[C@H](C)NC(=O)[C@H](CC(C)C)NC(=O)[C@H](CCCCN)NC(=O)[C@H](C)NC(=O)[C@H](CC(C)C)NC(=O)[C@H](CCCCN)NC(=O)[C@@H](N)CC(=O)O)C(=O)N[C@@H](C)C(=O)N[C@@H](CCCCN)C(=O)N[C@@H](C)C(=O)N[C@@H](CCCCN)C(N)=O
[1]
  growth at 10 µM: 94.8%
[2]
  growth at 10 µM: 103%
[3]
  growth at 10 µM: 114%
[4]
  growth at 10 µM: 107%
[5]
  growth at 10 µM: 71.8%
[6]
  growth at 10 µM: 85%
[7]
  growth at 10 µM: 98%
[8]
  growth at 10 µM: 104%
[9]
  growth at 10 µM: 108%
[10]
  mortality at 10 µM: 14%
[11]
  growth at 10 µM: 94.4%
[12]
  growth at 10 µM: 107%
[13]
  growth at 10 µM: 99.4%
[14]
  growth at 10 µM: 104%
[15]
  growth at 10 µM: 90.7%
[16]
  growth at 10 µM: 94.6%

## CCCCCCCCCCCCCCCC(=O)NCCCC[C@H](NC(=O)[C@H](C)NC(=O)[C@H](CCCCN)NC(=O)[C@H](C)NC(=O)[C@H](CC(C)C)NC(=O)[C@H](CCCCN)NC(=O)[C@H](C)NC(=O)[C@H](CC(C)C)NC(=O)[C@H](CCCCN)NC(=O)[C@H](CCCCN)NC(=O)[C@H](C)NC(=O)[C@H](CC(C)C)NC(=O)[C@H](CCCCN)NC(=O)[C@H](C)NC(=O)[C@H](CC(C)C)NC(=O)[C@H](CCCCN)NC(=O)[C@@H](N)CC(=O)O)C(N)=O
[17]
  growth at 7.25 µM: 99%
[18]
  growth at 7.25 µM: 102%
[19]
  growth at 7.25 µM: 102%
[20]
  growth at 7.25 µM: 103%
[21]
  mortality at 7.25 µM: 32%
[22]
  growth at 7.25 µM: 99.3%
[23]
  growth at 7.25 µM: 113%
[24]
  growth at 7.25 µM: 91.3%
[25]
  growth at 7.25 µM: 105%
[26]
  growth at 7.25 µM: 112%
[27]
  growth at 7.25 µM: 101%
[28]
  growth at 7.25 µM: 92.4%
[29]
  growth at 7.25 µM: 97.6%
[30]
  growth at 7.25 µM: 111%

## CCCCCCCCCCCCCCCCNCCO[C@H]1C[C@H](n2cc(C)c(=O)[nH]c2=O)O[C@@H]1C(=O)NCCCC[C@H](NC(=O)[C@H](C)NC(=O)[C@H](CCCCN)NC(=O)[C@H](C)NC(=O)[C@H](CC(C)C)NC(=O)[C@H](CCCCN)NC(=O)[C@H](C)NC(=O)[C@H](CC(C)C)NC(=O)[C@H](CCCCN)NC(=O)[C@H](CCCCN)NC(=O)[C@H](C)NC(=O)[C@H](CC(C)C)NC(=O)[C@H](CCCCN)NC(=O)[C@H](C)NC(=O)[C@H](CC(C)C)NC(=O)[C@H](CCCCN)NC(=O)[C@@H](N)CC(=O)O)C(N)=O
[31]
  growth at 2.13 µM: 104%
[32]
  growth at 2.13 µM: 98.9%
[33]
  growth at 2.13 µM: 88.8%
[34]
  growth at 2.13 µM: 81.2%
[35]
  growth at 2.13 µM: 102%
[36]
  growth at 2.13 µM: 108%
[37]
  growth at 2.13 µM: 103%
[38]
  growth at 2.13 µM: 99.9%
[39]
  growth at 2.13 µM: 109%
[40]
  growth at 2.13 µM: 99.4%
[41]
  growth at 2.13 µM: 104%
